A value given as a limit tells only on which side of the number the result lay.

This note sets out measurements from patent US20100331297A1, “MODULATION OF PROTEIN TRAFFICKING” (FOLDRX PHARMACEUTICALS, INC., priority 2007, published 2010).

The test system of one test is ypt1^ts cells. Put plainly: Rescue of growth of ypt1^ts mutant yeast (OD600). The settings on record: Saccharomyces cerevisiae, read-out: Ypt1-ts MRC (Minimum Rescue Concentration), ypt1^ts cells, 35° C. and 37° C., OD600; multiple results separated by a comma. Format: cell-based. Put shortly:
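Log-phase ypt1^ts cells (N121I/A161V) in SC 2% glucose were diluted to OD600 0.003 and treated with compound at 50 μM-0.05 μM final in 1% DMSO. Cultures were incubated at 35° C. (read at 24 and 40 h) or 37° C. (read at 40 h), with rescue measured as OD600 growth and reported as minimum rescue concentration.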

For another test, the target named is ΔF508 CFTR (Homo sapiens, UniProt P13569, DEL508-508). Put plainly: Ussing chamber assay, short-circuit current in FRT cells stably expressing ΔF508 CFTR. Format: cell-based. Also on record: expressed in transfected cells; host or cells: Fischer rat thyroid (FRT) cells. The settings on record: FRT ΔF508 CFTR monolayers treated 24 hours; forskolin, isobutylmethylxanthine, genistein. As to the method: Ussing Chamber Assay: Fischer rat thyroid (FRT) cells stably expressing ΔF508 CFTR (cystic fibrosis transmembrane conductance regulator) were cultured as previously described in Am J. Physiol. (1994) 266 L405-413. Monolayers of cells were grown on Snapwell inserts (Corning Inc.) at the air/liquid interface. The monolayers were treated with compound for 24 hours. The inserts are mounted in Ussing chambers (Harvard Apparatus) and short-circuit currents are measured using a voltage clamp apparatus (WPI, Inc.). A mucosal to serosal gradient in chloride concentration is imposed and the basolateral membrane is permeabilized using amphotericin. Short circuit currents are measured upon addition of the agonists forskolin, isobutylmethylxanthine, and genistein to maximally activate CFTR.
Sequence of ΔF508 CFTR (P13569 with tags, fused parts or gaps DEL508-508): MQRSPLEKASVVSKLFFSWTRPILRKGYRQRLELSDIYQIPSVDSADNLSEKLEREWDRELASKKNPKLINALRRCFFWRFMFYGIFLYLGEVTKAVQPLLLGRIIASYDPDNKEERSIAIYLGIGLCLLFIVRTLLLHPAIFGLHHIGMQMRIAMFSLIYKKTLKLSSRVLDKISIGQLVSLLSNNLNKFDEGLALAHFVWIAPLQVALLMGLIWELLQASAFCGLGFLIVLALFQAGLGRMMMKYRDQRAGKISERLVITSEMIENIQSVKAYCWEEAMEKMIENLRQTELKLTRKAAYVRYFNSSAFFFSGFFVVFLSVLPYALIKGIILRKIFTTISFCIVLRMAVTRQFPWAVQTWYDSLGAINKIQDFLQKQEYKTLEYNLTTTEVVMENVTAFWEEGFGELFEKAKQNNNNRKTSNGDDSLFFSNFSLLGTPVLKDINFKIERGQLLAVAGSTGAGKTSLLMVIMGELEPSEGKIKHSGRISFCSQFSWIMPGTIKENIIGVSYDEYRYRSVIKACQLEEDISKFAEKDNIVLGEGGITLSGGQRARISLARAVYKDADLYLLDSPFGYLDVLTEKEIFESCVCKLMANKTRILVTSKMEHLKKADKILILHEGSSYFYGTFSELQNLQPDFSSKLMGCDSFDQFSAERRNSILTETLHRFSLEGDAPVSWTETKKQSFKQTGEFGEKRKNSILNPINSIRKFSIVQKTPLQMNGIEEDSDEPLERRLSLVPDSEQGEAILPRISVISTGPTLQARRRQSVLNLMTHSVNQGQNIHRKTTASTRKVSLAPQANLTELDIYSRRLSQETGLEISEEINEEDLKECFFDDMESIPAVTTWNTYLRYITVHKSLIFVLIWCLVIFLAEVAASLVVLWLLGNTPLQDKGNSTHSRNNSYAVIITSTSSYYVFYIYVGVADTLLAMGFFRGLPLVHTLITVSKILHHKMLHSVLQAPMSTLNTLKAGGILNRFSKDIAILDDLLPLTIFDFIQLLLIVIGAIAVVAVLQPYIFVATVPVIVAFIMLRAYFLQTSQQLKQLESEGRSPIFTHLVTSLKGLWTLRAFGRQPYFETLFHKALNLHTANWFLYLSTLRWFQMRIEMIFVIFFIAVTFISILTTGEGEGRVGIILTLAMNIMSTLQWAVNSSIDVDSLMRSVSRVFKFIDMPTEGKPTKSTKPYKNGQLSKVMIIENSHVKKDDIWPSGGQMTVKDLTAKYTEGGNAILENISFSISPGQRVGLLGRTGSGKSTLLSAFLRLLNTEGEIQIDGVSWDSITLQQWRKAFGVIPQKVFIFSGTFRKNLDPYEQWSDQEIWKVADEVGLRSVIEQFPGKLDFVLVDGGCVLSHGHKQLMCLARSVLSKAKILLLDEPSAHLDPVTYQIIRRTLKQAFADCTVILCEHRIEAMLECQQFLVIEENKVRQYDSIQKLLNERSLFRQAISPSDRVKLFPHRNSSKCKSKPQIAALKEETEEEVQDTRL

`CC(C)(C)n1nc(-c2ccc(Cl)cc2)c2c(N)ncnc21` [compound 25]: in the test with ypt1^ts cells, the minimal effective concentration is under 10 µM. Besides, the “short circuit current after the addition of all three agonists” value at ΔF508 CFTR was about 65 uA/cm^2.
